Laboratory results from US9161536B2, “Herbicidal compositions comprising 4-amino-3-chloro-6-(4-chloro-2-fluoro-3-methoxyphenyl)-5-fluoropyridine-2-carboxylic acid or a derivative thereof and flurtamone, diflufenican, or picolinafen” (Dow AgroSciences LLC, priority 2012, dated 2015).

Tests used:
Assay type in all cases: in vivo
[1] = test system: Salsola tragus L., Russian thistle (SASKR); assay: greenhouse trial, foliar applied compositions, SASKR
Excerpt: (§1) More specifically, the following equation is used to calculate the expected activity of mixtures containing two herbicical active ingredients: Expected=A+B−(A×B/100) • A=observed efficacy of a first active ingredient at the same concentration as used in the mixture; • B=observed efficacy of the second active ingredient (or product, which may be a combination of active ingredients) at the same concentration as used in the mixture.
(§2) Results in Tables 1-8 are greenhouse trial results for foliar applied compositions.
(§3) • g/ha=grams acid equivalent per hectare (g ae/ha) for Cmpd 1 and grams active ingredient per hectare (g ai/ha) for diflufenican, picolinafen, BACARA® and BACARA® FORTE • Obs=observed value • Exp=expected value as calculated by the equations set forth above in paragraph [0024]. • Cmpd 1=benzyl 4-amino-3-chloro-6-(4-chloro-2-fluoro-3-methoxyphenyl)-5-fluoropyridine-2-carboxylate

[2] = test system: Veronica persica Poir., Persian speedwell (VERPE); assay: greenhouse trial, foliar applied compositions, VERPE
Excerpt: as §1, §2, §3

[3] = test system: Sinapis arvensis L., wild mustard (SINAR); assay: greenhouse trial, foliar applied compositions, SINAR
Excerpt: as §1, §2, §3

[4] = test system: Kochia scoparia (L.) Schrad., kochia (KCHSC); assay: greenhouse trial, foliar applied compositions, KCHSC
Excerpt: as §1, §2, §3

[5] = test system: Hordeum vulgare L., spring barley (HORVS); assay: greenhouse trial, foliar applied compositions, HORVS
Excerpt: as §1, §2, §3

[6] = test system: Cirsium arvense (L.) Scop., Canada thistle (CIRAR); assay: greenhouse trial, foliar applied compositions, CIRAR
Excerpt: as §1, §2, §3

[7] = test system: Matricaria recutita L., wild chamomile (MATCH); assay: greenhouse trial, foliar applied compositions, MATCH
Excerpt: as §1, §2, §3

[8] = test system: Triticum aestivum (spring), spring wheat (TRZAS); assay: greenhouse trial, foliar applied compositions, TRZAS
Excerpt: as §1, §2, §3

[9] = test system: Viola tricolor L., wild violet (VIOTR); assay: greenhouse trial, foliar applied compositions, VIOTR
Excerpt: as §1, §2, §3

[10] = test system: Lamium purpureum L., purple deadnettle (LAMPU); assay: greenhouse trial, foliar applied compositions, LAMPU
Excerpt: as §1, §2, §3

[11] = test system: Chenpodium album L., common lambsquarters (CHEAL); assay: greenhouse trial, foliar applied compositions, CHEAL
Excerpt: as §1, §2, §3

[12] = test system: Galium aparine L., catchweed bedstraw (GALAP); assay: greenhouse trial, foliar applied compositions, GALAP
Excerpt: as §1, §2, §3

[13] = test system: Papaver rhoeas L., common poppy (PAPRH); assay: greenhouse trial, foliar applied compositions, PAPRH
Excerpt: as §1, §2, §3

[14] = test system: Stellaria media (L.) Vill., common chickweed (STEME); assay: greenhouse trial, foliar applied compositions, STEME
Excerpt: as §1
In some embodiments, the methods provided herein are utilized to control undesirable vegetation in cereals. In certain embodiments, the undesirable vegetation is Alopecurus myosuroides Huds. (blackgrass, ALOMY), Apera spica venti (L.) Beauv. (windgrass, APESV), Avena fatua L. (wild oat, AVEFA), Bromus tectorum L. (downy brome, BROTE), Lolium multiflorum Lam. (Italian ryegrass, LOLMU), Lolium rigidum (rigid ryegrass), Lolium multiflorum subsp. Gaudini (annual ryegrass, LOLMG), Phalaris minor Retz. […]
as §3

With `O=C(Nc1ccc(F)cc1)c1cccc(Oc2cccc(C(F)(F)F)c2)n1` [Picolinafen, N-(4-fluorophenyl)-6-[3-(trifluoromethyl)phenoxy]-2-pyridinecarboxamide] the “SASKR Obs” value ([1]; Picolinafen 50 g ai/ha alone) was 30, the “VERPE Obs” value ([2]; Picolinafen 50 g ai/ha alone) was 10 and the “SINAR Obs” value ([3]; Picolinafen 50 g ai/ha alone) was 70. The “KCHSC Obs” value ([4]; Picolinafen 50 g ai/ha alone) was 20, the “HORVS Obs” value ([5]; Picolinafen 50 g ai/ha alone) was 10 and the “CIRAR Obs” value ([6]; Picolinafen 50 g ai/ha alone) was 15. For the same compound, the “MATCH Obs” value ([7]; Picolinafen 50 g ai/ha alone) was 0, the “TRZAS Obs” value ([8]; Picolinafen 50 g ai/ha alone) was 10 and the “VIOTR Obs” value ([9]; Picolinafen 50 g ai/ha alone) was 10. For the same compound, the “LAMPU Obs” value ([10]; Picolinafen 50 g ai/ha alone) was 0 and the “CHEAL Obs” value ([11]; Picolinafen 50 g ai/ha alone) was 70.
For `O=C(Nc1ccc(F)cc1F)c1cccnc1Oc1cccc(C(F)(F)F)c1` [Diflufenican, N-(2,4-difluorophenyl)-2-[3-(trifluoromethyl)phenoxy]-3-pyridinecarboxamide], the “SASKR Obs” value ([1]; Diflufenican 50 g ai/ha alone) was 70, the “VERPE Obs” value ([2]; Diflufenican 50 g ai/ha alone) was 10 and the “GALAP Obs” value ([12]; Diflufenican 50 g ai/ha alone) was 0. The “PAPRH Obs” value ([13]; Diflufenican 50 g ai/ha alone) was 0, the “SINAR Obs” value ([3]; Diflufenican 50 g ai/ha alone) was 30 and the “KCHSC Obs” value ([4]; Diflufenican 50 g ai/ha alone) was 40. The “HORVS Obs” value ([5]; Diflufenican 50 g ai/ha alone) was 5, the “CIRAR Obs” value ([6]; Diflufenican 50 g ai/ha alone) was 0 and the “MATCH Obs” value ([7]; Diflufenican 50 g ai/ha alone) was 0. The “TRZAS Obs” value ([8]; Diflufenican 50 g ai/ha alone) was 5, the “VIOTR Obs” value ([9]; Diflufenican 50 g ai/ha alone) was 15 and the “LAMPU Obs” value ([10]; Diflufenican 50 g ai/ha alone) was 0. The “CHEAL Obs” value ([11]; Diflufenican 50 g ai/ha alone) was 10.
For `COc1c(Cl)ccc(-c2nc(C(=O)OCc3ccccc3)c(Cl)c(N)c2F)c1F` [Cmpd 1, benzyl 4-amino-3-chloro-6-(4-chloro-2-fluoro-3-methoxyphenyl)-5-fluoropyridine-2-carboxylate], the “SASKR Obs” value ([1]; Cmpd 1 2.5 g ae/ha alone) was 10, the “SASKR Obs” value ([1]; Cmpd 1 5 g ae/ha alone) was 60 and the “VERPE Obs” value ([2]; Cmpd 1 2.5 g ae/ha alone) was 0. For the same compound, the “VERPE Obs” value ([2]; Cmpd 1 5 g ae/ha alone) was 5, the “GALAP Obs” value ([12]; Cmpd 1 2.5 g ae/ha alone) was 60 and the “GALAP Obs” value ([12]; Cmpd 1 5 g ae/ha alone) was 60. The “PAPRH Obs” value ([13]; Cmpd 1 2.5 g ae/ha alone) was 20, the “PAPRH Obs” value ([13]; Cmpd 1 5 g ae/ha alone) was 70 and the “SINAR Obs” value ([3]; Cmpd 1 2.5 g ae/ha alone) was 60. The “SINAR Obs” value ([3]; Cmpd 1 5 g ae/ha alone) was 70, the “KCHSC Obs” value ([4]; Cmpd 1 2.5 g ae/ha alone) was 20 and the “KCHSC Obs” value ([4]; Cmpd 1 5 g ae/ha alone) was 40. The “HORVS Obs” value ([5]; Cmpd 1 2.5 g ae/ha alone) was 0, the “HORVS Obs” value ([5]; Cmpd 1 5 g ae/ha alone) was 0 and the “CIRAR Obs” value ([6]; Cmpd 1 2.5 g ae/ha alone) was 10. The “CIRAR Obs” value ([6]; Cmpd 1 5 g ae/ha alone) was 20, the “MATCH Obs” value ([7]; Cmpd 1 2.5 g ae/ha alone) was 0 and the “MATCH Obs” value ([7]; Cmpd 1 5 g ae/ha alone) was 10. The “TRZAS Obs” value ([8]; Cmpd 1 2.5 g ae/ha alone) was 0, the “TRZAS Obs” value ([8]; Cmpd 1 5 g ae/ha alone) was 5 and the “STEME Obs” value ([14]; Cmpd 1 2.5 g ae/ha alone) was 20. The “STEME Obs” value ([14]; Cmpd 1 5 g ae/ha alone) was 30, the “VIOTR Obs” value ([9]; Cmpd 1 2.5 g ae/ha alone) was 10 and the “VIOTR Obs” value ([9]; Cmpd 1 5 g ae/ha alone) was 10. The “LAMPU Obs” value ([10]; Cmpd 1 2.5 g ae/ha alone) was 80, the “LAMPU Obs” value ([10]; Cmpd 1 5 g ae/ha alone) was 80 and the “CHEAL Obs” value ([11]; Cmpd 1 2.5 g ae/ha alone) was 50. For the same compound, the “CHEAL Obs” value ([11]; Cmpd 1 5 g ae/ha alone) was 60.
